In PubChem BioAssay (NCI) one finds GI50 and TGI data, which are given here for six molecules.

Structures are written as SMILES.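 Protocol summary: plate cells (96-well), add compound at 5 concentrations, incubate 48 h, interpolate endpoints linearly. Here, GI50 denotes the concentration required for 50% inhibition of growth. TGI denotes the concentration required for complete inhibition of growth.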

Among the test systems are SK-MEL-28 melanoma; SN12C renal; HS 578T breast; TK-10 renal; SW-620 colon; IGROV1 ovarian; A498 renal; SK-MEL-5 melanoma; MOLT-4 leukemia; HOP-92 NSCLC.
Common to all, as to assay: inhibition of tumour cell growth, NCI panel, 48 h

For the molecule `CCN1C(=O)N(CC)C2C1NN=c1s/c(=C\c3ccc(F)cc3)c(=O)n12` (stereo not given), the GI50 in the experiment with SK-MEL-28 melanoma is 0.599 µM; with SN12C renal it was 0.615 µM; with HS 578T breast, 0.183 µM; with TK-10 renal, 10.5 µM; in the experiment with SW-620 colon, 0.14 µM; with IGROV1 ovarian it was 0.584 µM. For the same molecule, the GI50 in the experiment on A498 renal is 0.0394 µM; with SK-MEL-5 melanoma it was 0.0865 µM; with MOLT-4 leukemia, 0.418 µM; with HOP-92 NSCLC, 7.43 µM. Besides, the TGI in the experiment with SK-MEL-28 melanoma, with SN12C renal, in the experiment with HS 578T breast, with TK-10 renal, with SW-620 colon and with IGROV1 ovarian was greater than 100 µM throughout. The TGI in the experiment on A498 renal is 0.33 µM; in the experiment with SK-MEL-5 melanoma, 5.7 µM; in the experiment with MOLT-4 leukemia, greater than 100 µM; in the experiment on HOP-92 NSCLC it was greater than 100 µM.

`c1cc(N2CCN(c3ccc(C4=NCCCN4)cc3)CC2)ccc1C1=NCCCN1`: the GI50 in the experiment on SK-MEL-28 melanoma is greater than 100 µM; with SN12C renal, greater than 100 µM; in the experiment on HS 578T breast, greater than 58.7 µM; in the experiment with TK-10 renal, greater than 69.4 µM; in the experiment on SW-620 colon, greater than 62.6 µM; in the experiment on IGROV1 ovarian, greater than 100 µM. Further, the GI50 is 29.2 µM in the experiment with A498 renal, 21.2 µM with SK-MEL-5 melanoma, 19.4 µM in the experiment on MOLT-4 leukemia and 73 µM in the experiment on HOP-92 NSCLC. Moreover, the TGI in the experiment with SK-MEL-28 melanoma, in the experiment with SN12C renal, with HS 578T breast, in the experiment on TK-10 renal, in the experiment on SW-620 colon and in the experiment with IGROV1 ovarian was greater than 100 µM throughout. Moreover, the TGI in the experiment on A498 renal, in the experiment on SK-MEL-5 melanoma, in the experiment on MOLT-4 leukemia and in the experiment with HOP-92 NSCLC was greater than 100 µM throughout.

Take `CNNC(=NS(=O)(=O)c1cc(C#N)c(NNC)cc1S)NNC`: the TGI in the experiment with SK-MEL-28 melanoma, with SN12C renal, with HS 578T breast, in the experiment with TK-10 renal, in the experiment with SW-620 colon and in the experiment on IGROV1 ovarian was greater than 10 µM throughout. For the same molecule, the TGI with A498 renal, with SK-MEL-5 melanoma, in the experiment on MOLT-4 leukemia and in the experiment with HOP-92 NSCLC was greater than 10 µM throughout.

As to `CCOC(=O)c1cc2c(cc1Cl)SC(=Nc1ccccc1)N(S(=O)(=O)c1ccc(Br)s1)S2(=O)=O`, the GI50 with SK-MEL-28 melanoma is 24.1 µM; with SN12C renal, 17.3 µM; with HS 578T breast it was 18.7 µM; in the experiment with TK-10 renal, 15.9 µM; in the experiment on SW-620 colon, 16.6 µM; in the experiment on IGROV1 ovarian, 17.7 µM. For the same molecule, the GI50 in the experiment with A498 renal was 16.2 µM; in the experiment with SK-MEL-5 melanoma, 12.1 µM; with MOLT-4 leukemia, 4.37 µM; with HOP-92 NSCLC, 10.9 µM. Besides, the TGI in the experiment with SK-MEL-28 melanoma came to 64.5 µM; in the experiment with SN12C renal, 33.9 µM; in the experiment with HS 578T breast, 49.4 µM; with TK-10 renal, 30.4 µM; in the experiment on SW-620 colon it was 34.3 µM; with IGROV1 ovarian, 53.4 µM. The TGI in the experiment on A498 renal was determined as 34 µM; with SK-MEL-5 melanoma, 25.2 µM; with MOLT-4 leukemia, 17.9 µM; in the experiment on HOP-92 NSCLC it was 33.6 µM.

Consider `COc1ccc(/C=C(\C)[N+](=O)[O-])cc1OC`, for which the GI50 in the experiment on SK-MEL-28 melanoma is 1.71 µM; with SN12C renal it was 2.72 µM; with HS 578T breast, 3.5 µM; in the experiment on TK-10 renal it was 1.55 µM; in the experiment with SW-620 colon, 1.78 µM; in the experiment on IGROV1 ovarian it was 2.16 µM. For the same molecule, the GI50 in the experiment with A498 renal is 4.51 µM; in the experiment on SK-MEL-5 melanoma, 2.19 µM; with MOLT-4 leukemia, 3.86 µM; in the experiment on HOP-92 NSCLC it was 2.01 µM. Besides, the TGI is 3.44 µM with SK-MEL-28 melanoma; 8.23 µM in the experiment on SN12C renal; 15.9 µM with HS 578T breast; 3.12 µM in the experiment on TK-10 renal; 3.8 µM in the experiment with SW-620 colon; 5.51 µM in the experiment on IGROV1 ovarian. Besides, the TGI in the experiment with A498 renal came out at 18.5 µM; in the experiment with SK-MEL-5 melanoma, 5.11 µM; in the experiment with MOLT-4 leukemia, 9.52 µM; in the experiment with HOP-92 NSCLC, 3.71 µM.

Regarding `COc1ccc2c(c1)C(=O)c1c-2c(OCCN(C)C)nc2ccccc12`, the GI50 is 4.53 µM in the experiment on SK-MEL-28 melanoma; 1.69 µM with SN12C renal; 3.57 µM in the experiment with HS 578T breast; 7.56 µM with TK-10 renal; 0.823 µM in the experiment on SW-620 colon; 2.97 µM in the experiment with IGROV1 ovarian. The GI50 is 1.87 µM with A498 renal, 4.6 µM with SK-MEL-5 melanoma, 0.524 µM with MOLT-4 leukemia and 8.05 µM in the experiment with HOP-92 NSCLC. Besides, the TGI in the experiment with SK-MEL-28 melanoma came out at 15.4 µM; in the experiment on SN12C renal, 10.6 µM; in the experiment with HS 578T breast, 12.2 µM; in the experiment with TK-10 renal, 20.8 µM; with SW-620 colon, 3.26 µM; with IGROV1 ovarian it was 14.8 µM. The TGI in the experiment on A498 renal is 10.7 µM; with SK-MEL-5 melanoma, 16.6 µM; in the experiment with MOLT-4 leukemia, 5.64 µM; in the experiment with HOP-92 NSCLC, 81.8 µM.
